pKi: −log10 of the molar value.
Tests used:
[1] = target: 72 kDa type IV collagenase (Homo sapiens, UniProt P08253); assay: Binding affinity to MMP2
[2] = target: Macrophage metalloelastase (Homo sapiens, UniProt P39900); assay: Binding affinity to MMP12
Interstitial collagenase = target: T1, Interstitial collagenase (Homo sapiens, UniProt P03956); assay: Binding affinity to MMP1
T1 sequence (P03956 whole entry): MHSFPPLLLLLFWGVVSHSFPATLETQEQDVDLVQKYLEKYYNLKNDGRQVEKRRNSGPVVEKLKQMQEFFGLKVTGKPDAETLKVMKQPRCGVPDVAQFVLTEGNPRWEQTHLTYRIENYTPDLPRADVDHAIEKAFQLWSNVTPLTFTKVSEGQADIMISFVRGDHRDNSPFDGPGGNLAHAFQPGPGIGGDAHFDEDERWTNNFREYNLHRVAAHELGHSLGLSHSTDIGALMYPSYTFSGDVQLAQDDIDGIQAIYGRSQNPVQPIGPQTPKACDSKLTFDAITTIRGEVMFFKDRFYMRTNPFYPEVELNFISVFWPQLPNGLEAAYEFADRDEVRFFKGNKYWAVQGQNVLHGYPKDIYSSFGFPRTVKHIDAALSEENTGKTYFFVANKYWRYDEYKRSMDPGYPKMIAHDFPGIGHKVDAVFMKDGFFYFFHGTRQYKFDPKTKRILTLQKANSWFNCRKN

[3] = target: Matrix metalloproteinase-9 (Homo sapiens, UniProt P14780); assay: Binding affinity to MMP9
Sequence of Matrix metalloproteinase-9 (P14780 whole entry): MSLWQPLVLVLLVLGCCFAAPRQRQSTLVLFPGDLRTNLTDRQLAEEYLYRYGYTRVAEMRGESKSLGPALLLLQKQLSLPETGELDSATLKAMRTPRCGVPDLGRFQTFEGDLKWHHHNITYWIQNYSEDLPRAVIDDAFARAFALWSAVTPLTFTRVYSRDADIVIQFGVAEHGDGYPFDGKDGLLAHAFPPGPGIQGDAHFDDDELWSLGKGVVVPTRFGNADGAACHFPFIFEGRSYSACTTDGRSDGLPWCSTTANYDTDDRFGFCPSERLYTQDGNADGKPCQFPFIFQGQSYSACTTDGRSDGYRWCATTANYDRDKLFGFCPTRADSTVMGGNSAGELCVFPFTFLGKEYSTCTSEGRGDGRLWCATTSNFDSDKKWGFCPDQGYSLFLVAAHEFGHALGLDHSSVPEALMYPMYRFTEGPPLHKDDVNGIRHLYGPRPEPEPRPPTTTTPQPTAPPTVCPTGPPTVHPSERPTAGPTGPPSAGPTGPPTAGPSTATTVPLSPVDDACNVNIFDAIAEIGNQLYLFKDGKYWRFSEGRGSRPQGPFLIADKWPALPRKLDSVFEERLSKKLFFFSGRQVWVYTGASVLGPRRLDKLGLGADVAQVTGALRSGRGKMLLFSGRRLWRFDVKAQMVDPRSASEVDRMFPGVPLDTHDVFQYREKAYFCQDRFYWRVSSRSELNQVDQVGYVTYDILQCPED

Stromelysin-1 = Stromelysin-1 (Homo sapiens, UniProt P08254); assay: Binding affinity to MMP3
Sequence of Stromelysin-1 (P08254 whole entry): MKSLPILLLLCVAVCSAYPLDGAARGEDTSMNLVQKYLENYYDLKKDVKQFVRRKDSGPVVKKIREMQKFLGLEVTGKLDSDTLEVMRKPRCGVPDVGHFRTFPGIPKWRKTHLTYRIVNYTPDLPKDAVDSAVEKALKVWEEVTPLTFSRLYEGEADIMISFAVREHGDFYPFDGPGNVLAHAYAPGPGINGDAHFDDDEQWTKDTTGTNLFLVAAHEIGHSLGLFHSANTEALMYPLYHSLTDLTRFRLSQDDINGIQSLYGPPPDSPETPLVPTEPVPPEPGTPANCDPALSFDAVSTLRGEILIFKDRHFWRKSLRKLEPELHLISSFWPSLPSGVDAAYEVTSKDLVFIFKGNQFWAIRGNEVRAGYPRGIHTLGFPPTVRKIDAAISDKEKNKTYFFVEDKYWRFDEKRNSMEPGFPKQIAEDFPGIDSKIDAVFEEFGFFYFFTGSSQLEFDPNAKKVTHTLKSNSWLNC

Matrilysin = target: T2, Matrilysin (Homo sapiens, UniProt P09237); assay: Binding affinity to MMP7
T2 sequence (P09237 whole entry): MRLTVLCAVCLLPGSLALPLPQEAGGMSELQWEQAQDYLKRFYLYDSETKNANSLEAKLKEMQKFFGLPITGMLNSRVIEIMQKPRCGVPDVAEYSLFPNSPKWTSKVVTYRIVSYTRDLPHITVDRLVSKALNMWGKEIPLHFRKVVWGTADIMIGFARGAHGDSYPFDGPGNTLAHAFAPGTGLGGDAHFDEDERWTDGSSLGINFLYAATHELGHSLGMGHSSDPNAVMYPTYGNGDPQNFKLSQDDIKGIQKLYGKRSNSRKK

Collagenase 3 = Collagenase 3 (Homo sapiens, UniProt P45452); assay: Binding affinity to MMP13

Sequence of Macrophage metalloelastase (P39900 whole entry): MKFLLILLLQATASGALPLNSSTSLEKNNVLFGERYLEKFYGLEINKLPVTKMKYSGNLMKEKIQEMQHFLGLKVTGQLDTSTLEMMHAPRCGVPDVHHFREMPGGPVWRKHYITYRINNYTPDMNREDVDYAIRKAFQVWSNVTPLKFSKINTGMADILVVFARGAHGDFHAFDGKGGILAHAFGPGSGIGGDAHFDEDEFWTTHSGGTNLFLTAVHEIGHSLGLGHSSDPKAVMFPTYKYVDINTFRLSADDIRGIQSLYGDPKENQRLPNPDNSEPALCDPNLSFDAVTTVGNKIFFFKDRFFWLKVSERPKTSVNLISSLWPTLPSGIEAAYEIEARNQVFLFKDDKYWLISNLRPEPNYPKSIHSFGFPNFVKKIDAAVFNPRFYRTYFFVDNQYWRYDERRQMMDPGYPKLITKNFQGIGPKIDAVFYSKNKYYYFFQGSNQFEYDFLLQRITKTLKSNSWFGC
Sequence of 72 kDa type IV collagenase (P08253 whole entry): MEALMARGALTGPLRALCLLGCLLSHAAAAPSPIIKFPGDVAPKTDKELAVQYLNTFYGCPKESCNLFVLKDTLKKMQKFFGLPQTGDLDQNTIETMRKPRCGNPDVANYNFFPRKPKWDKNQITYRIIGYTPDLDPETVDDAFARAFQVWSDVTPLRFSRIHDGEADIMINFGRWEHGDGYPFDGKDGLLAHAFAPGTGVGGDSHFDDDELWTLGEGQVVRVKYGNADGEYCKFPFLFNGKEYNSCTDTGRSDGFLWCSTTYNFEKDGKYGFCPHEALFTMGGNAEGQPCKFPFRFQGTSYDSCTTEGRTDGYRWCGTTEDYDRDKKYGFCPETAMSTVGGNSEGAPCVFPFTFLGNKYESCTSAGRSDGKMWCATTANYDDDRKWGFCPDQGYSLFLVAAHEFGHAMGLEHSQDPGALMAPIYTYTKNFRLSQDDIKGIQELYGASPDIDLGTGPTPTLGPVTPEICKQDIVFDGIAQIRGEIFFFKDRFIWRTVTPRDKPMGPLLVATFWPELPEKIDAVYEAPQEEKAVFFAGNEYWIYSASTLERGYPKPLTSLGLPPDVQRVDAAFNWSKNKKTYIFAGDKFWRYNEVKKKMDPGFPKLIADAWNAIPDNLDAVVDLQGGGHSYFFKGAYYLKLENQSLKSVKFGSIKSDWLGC

| pKi [1] | pKi [2] | pKi (Interstitial collagenase) | pKi [3] | pKi (Stromelysin-1) | pKi (Matrilysin) | pKi (Collagenase 3) | SMILES |
| --- | --- | --- | --- | --- | --- | --- | --- |
| < 5.48 | < 5.30 | < 5.31 | < 5.67 | – | – | – | Cc1cc(COc2ccc(S(=O)(=O)NCC3(C)NC(=O)NC3=O)cc2)c2ccccc2n1 (stereo unspecified) |
| < 5.48 | < 5.30 | < 5.31 | < 5.67 | – | – | – | Cc1cc(COc2ccc(C(=O)NCc3n[nH]c(=O)[nH]3)cc2)c2ccccc2n1 |
| < 5.48 | < 5.30 | < 5.31 | < 5.67 | – | – | – | Cc1cc(COc2ccc(C(=O)NCC3(C)NC(=O)NC3=O)cc2)c2ccccc2n1 (stereo unspecified) |
| < 5.48 | 5.44 | – | – | < 5.35 | < 5.20 | 5.37 | Cc1cc(COc2ccc(C(=O)Nc3ccccc3Cc3n[nH]c(=O)[nH]3)cc2)c2ccccc2n1 |
| < 5.48 | < 5.22 | – | – | < 5.35 | < 5.20 | 5.37 | Cc1cc(COc2ccc(C(=O)Nc3ccccc3C(=O)c3c[nH]c(=O)[nH]3)cc2)c2ccccc2n1 |
| < 5.48 | < 5.30 | < 5.31 | < 5.67 | – | – | – | Cc1cc(COc2ccc(C(=O)N[C@H]3CN(C(=O)OC(C)(C)C)C[C@@H]3c3n[nH]c(=O)[nH]3)cc2)c2ccccc2n1 |
| < 5.48 | 6.11 | – | – | < 5.35 | < 5.20 | < 5.30 | Cc1cc(COc2ccc(C(=O)Nc3ccccc3C3NC(=O)NC3=O)cc2)c2ccccc2n1 (stereo unspecified) |
| < 5.48 | < 5.22 | – | – | < 5.35 | < 5.20 | < 5.30 | Cc1cc(COc2ccc(C(=O)Nc3ccccc3Cc3c[nH]c(=O)[nH]3)cc2)c2ccccc2n1 |
| 5.61 | 5.39 | – | – | 6.25 | 6.00 | < 5.30 | Cc1cc(COc2ccc(S(=O)(=O)NCc3n[nH]c(=O)[nH]3)cc2)c2ccccc2n1 |
